Data set [1] concerns Avena fatua. The data set can be described thus: Herbicidal activity against Avena fatua at 140 g/ha after 2 weeks. It is filed as functional.
Data set [2] relates to Echinochloa crus-galli. The data set can be described thus: Herbicidal activity against Echinochloa crus-galli (barnyard grass) at 140 g/ha after 2 weeks. It is filed as functional.
Data set [3] deals with Glycine max. The data set can be described thus: Herbicidal activity against Glycine max (soybean) at 140 g/ha after 2 weeks. It is filed as organism-based. The conditions noted are these: in vivo, 336 h.
In data set [4] the test system is Xanthium strumarium. The data set can be described thus: Herbicidal activity against Xanthium strumarium (cocklebur) 140 g/ha after 2 weeks. It is filed as functional.
Data set [5] deals with Abutilon theophrasti. The data set can be described thus: Herbicidal activity against Abutilon theophrasti (velvetleaf) at 140 g/ha after 2 weeks. The data set is classed as functional.
Data set [6] deals with Galium spurium. The data set can be described thus: Herbicidal activity against Galium spurium var. echinospermon (Wally.) Hayek at 140 g/ha after 2 weeks. It is filed as functional.
The subject of data set [7] is Veronica persica. The data set can be described thus: Herbicidal activity against Veronica persica at 140 g/ha after 2 weeks. The data set is classed as functional.
Data set [8] concerns Triticum aestivum. The data set can be described thus: Herbicidal activity against Triticum aestivum (wheat) at 140 g/ha after 2 weeks. The data set is classed as organism-based. The conditions noted are these: in vivo, 336 h.
Data set [9] concerns Galium spurium. The data set can be described thus: Herbicidal activity against Galium spurium var. echinospermon (Wally.) Hayek at 200 g/ha after 2 weeks. The data set is classed as functional.
Data set [10] deals with Abutilon theophrasti. The data set can be described thus: Herbicidal activity against Abutilon theophrasti (velvetleaf) at 200 g/ha after 2 weeks. The data set is classed as functional.
The subject of data set [11] is Veronica persica. The data set can be described thus: Herbicidal activity against Veronica persica at 200 g/ha after 2 weeks. The data set is classed as functional.
The subject of data set [12] is Xanthium strumarium. The data set can be described thus: Herbicidal activity against Xanthium strumarium (cocklebur) 200 g/ha after 2 weeks. The data set is classed as functional.
The subject of data set [13] is Triticum aestivum. The data set can be described thus: Herbicidal activity against Triticum aestivum (wheat) at 200 g/ha after 2 weeks. The conditions noted are these: in vivo, 336 h. It is filed as organism-based.
Data set [14] relates to Glycine max. The data set can be described thus: Herbicidal activity against Glycine max (soybean) at 200 g/ha after 2 weeks. It is filed as organism-based. The conditions noted are these: in vivo, 336 h.
Data set [15] relates to Avena fatua. The data set can be described thus: Herbicidal activity against Avena fatua at 200 g/ha after 2 weeks. The data set is classed as functional.
The test system of data set [16] is Echinochloa crus-galli. The data set can be described thus: Herbicidal activity against Echinochloa crus-galli (barnyard grass) at 200 g/ha after 2 weeks. It is filed as functional.
Data set [17] relates to Galium spurium. The data set can be described thus: Herbicidal activity against Galium spurium var. echinospermon (Wally.) Hayek at 250 g/ha after 2 weeks. The data set is classed as functional.
In data set [18] the test system is Avena fatua. The data set can be described thus: Herbicidal activity against Avena fatua at 500 g/ha after 2 weeks. The data set is classed as functional.
Data set [19] has as its system Xanthium strumarium. The data set can be described thus: Herbicidal activity against Xanthium strumarium (cocklebur) 500 g/ha after 2 weeks. It is filed as functional.
In data set [20] the test system is Echinochloa crus-galli. The data set can be described thus: Herbicidal activity against Echinochloa crus-galli (barnyard grass) at 250 g/ha after 2 weeks. It is filed as functional.
Data set [21] relates to Abutilon theophrasti. The data set can be described thus: Herbicidal activity against Abutilon theophrasti (velvetleaf) at 500 g/ha after 2 weeks. The data set is classed as functional.
Data set [22] relates to Veronica persica. The data set can be described thus: Herbicidal activity against Veronica persica at 500 g/ha after 2 weeks. The data set is classed as functional.
In data set [23] the test system is Veronica persica. The data set can be described thus: Herbicidal activity against Veronica persica at 250 g/ha after 2 weeks. The data set is classed as functional.
Data set [24] deals with Abutilon theophrasti. The data set can be described thus: Herbicidal activity against Abutilon theophrasti (velvetleaf) at 250 g/ha after 2 weeks. The data set is classed as functional.
Data set [25] has as its system Echinochloa crus-galli. The data set can be described thus: Herbicidal activity against Echinochloa crus-galli (barnyard grass) at 500 g/ha after 2 weeks. It is filed as functional.
In data set [26] the test system is Galium spurium. The data set can be described thus: Herbicidal activity against Galium spurium var. echinospermon (Wally.) Hayek at 500 g/ha after 2 weeks. It is filed as functional.
Data set [27] concerns Glycine max. The data set can be described thus: Herbicidal activity against Glycine max (soybean) at 500 g/ha after 2 weeks. The data set is classed as organism-based. Particulars: in vivo, 336 h.
Data set [28] has as its system Veronica persica. The data set can be described thus: Herbicidal activity against Veronica persica at 5000 g/ha after 2 weeks. It is filed as functional.
For data set [29], the system named is Glycine max. The data set can be described thus: Herbicidal activity against Glycine max (soybean) at 5000 g/ha after 2 weeks. The data set is classed as organism-based. The conditions noted are these: in vivo, 336 h.
The subject of data set [30] is Echinochloa crus-galli. The data set can be described thus: Herbicidal activity against Echinochloa crus-galli (barnyard grass) at 5000 g/ha after 2 weeks. The data set is classed as functional.
For data set [31], the system named is Triticum aestivum. The data set can be described thus: Herbicidal activity against Triticum aestivum (wheat) at 5000 g/ha after 2 weeks. It is filed as ADME, organism-based. Particulars: in vivo, 336 h.
The test system of data set [32] is Triticum aestivum. The data set can be described thus: Herbicidal activity against Triticum aestivum (wheat) at 500 g/ha after 2 weeks. It is filed as ADME, organism-based. The conditions noted are these: in vivo, 336 h.
Data set [33] relates to Xanthium strumarium. The data set can be described thus: Herbicidal activity against Xanthium strumarium (cocklebur) 250 g/ha after 2 weeks. The data set is classed as functional.
Data set [34] deals with Galium spurium. The data set can be described thus: Herbicidal activity against Galium spurium var. echinospermon (Wally.) Hayek at 5000 g/ha after 2 weeks. The data set is classed as functional.
The subject of data set [35] is Avena fatua. The data set can be described thus: Herbicidal activity against Avena fatua at 5000 g/ha after 2 weeks. It is filed as functional.
Data set [36] relates to Xanthium strumarium. The data set can be described thus: Herbicidal activity against Xanthium strumarium (cocklebur) 5000 g/ha after 2 weeks. It is filed as functional.
Data set [37] deals with Abutilon theophrasti. The data set can be described thus: Herbicidal activity against Abutilon theophrasti (velvetleaf) at 5000 g/ha after 2 weeks. The data set is classed as functional.
For data set [38], the system named is Avena fatua. The data set can be described thus: Herbicidal activity against Avena fatua at 250 g/ha after 2 weeks. The data set is classed as functional.
The test system of data set [39] is Triticum aestivum. The data set can be described thus: Herbicidal activity against Triticum aestivum (wheat) at 250 g/ha after 2 weeks. The data set is classed as organism-based. Particulars: in vivo, 336 h.
Data set [40] deals with Glycine max. The data set can be described thus: Herbicidal activity against Glycine max (soybean) at 250 g/ha after 2 weeks. The conditions noted are these: in vivo, 336 h. It is filed as organism-based.

Structures are written as SMILES. Where only a bound is given, the exact number is not on record here.

With `CC(C)C1(C)N=C(c2nc3ccccc3cc2C(=O)O)NC1=O` (stereo not given) [IMAZAQUIN], the Activity in data set [1] is given as 50%; in [2], 30%; in [3], under 10%; in data set [4], 95%; in data set [5], 30%; in data set [6], 70%. Besides, the values for the Activity in data set [7] and in data set [8] were 50% and 70%, respectively.

Regarding `CS(=O)(=O)NC(=O)c1cc(Oc2ccc(C(F)(F)F)cc2Cl)ccc1[N+](=O)[O-]` [FOMESAFEN], the Activity in data set [9] is recorded as 70%; in data set [10], 95%; in data set [11], 95%; in data set [12] it was 50%; in data set [13], 30%; in data set [14] it was under 10%. Moreover, the Activity in data set [15] is under 10%; in data set [16] it was 30%.

Regarding `CC[C@H](C)NC(=O)c1nc(C)c(C)nc1C(=O)Nc1cc(F)ccc1C`, the Activity was under 10% in [17]; under 10% in [18]; under 10% in data set [19]; under 10% in data set [20]; under 10% in [21]; 70% in data set [22]. The Activity in data set [23] is 70%; in data set [24] it was under 10%; in [25] it was under 10%; in data set [26], under 10%; in data set [27] it was under 10%; in data set [28], 95%. For the same molecule, the Activity is recorded as under 10% in data set [29]; 70% in [30]; 30% in data set [31]; under 10% in [32]; under 10% in data set [33]; 95% in data set [34]. Further, the Activity is 50% in data set [35]; 95% in [36]; 70% in [37]; under 10% in data set [38]; under 10% in data set [39]; under 10% in data set [40].

For the origin of these results see ChEMBL document CHEMBL3046846, “Synthesis of N-Alkyl-2, 3-dimethyl-5-[N-(5-halo-2-methylphenyl)carbamoyl]-6-pyrazinecarboxamides and Their Herbicidal Activity” (J Pestic Sci, 1997).
